Data reported in US5488060A, “Substituted thiadiazoles, compositions containing them and their use as antimicrobial and marine antifouling agents” (The Dow Chemical Company, priority 1994, dated 1996).
Converted amounts (≈) assume the structure as drawn. Like-named read-outs stand apart in the source and are kept apart here.

Key:
Type in all cases: cell-based
[1] = system: Enterobacter aerogenes (Ea); assay: Minimum inhibitory concentration (MIC) in nutrient agar, Enterobacter aerogenes; settings: Klebsiella aerogenes
Method: (§1) The antimicrobial activity of the compounds of the present invention is set forth as the minimum inhibitory concentration (MIC) for the active compounds and is determined for nine (9) bacteria, using nutrient agar, and seven (7) yeast and fungi, using malt yeast agar. This determination is conducted using a one percent solution of the test compound prepared in a mixture of acetone and water.
(§2) Nutrient agar is prepared at pH 6.8, representing a neutral medium, and at pH 8.2, representing an alkaline medium. The nutrient agars are prepared by adding 23 g of nutrient agar to one-liter of deionized water. In addition, the alkaline medium is prepared by adjusting a 0.04M solution of N-[tris-(hydroxymethyl)methyl]glycine buffered deionized water with concentrated sodium hydroxide to a pH of 8.5.
(§3) The test tubes containing the agar are cooled in a water bath until the temperature of the agar is 48° C. Then, an appropriate amount of the one percent solution of the test compound is added (except in the controls where no compound is added) to the respective test tubes so that the final concentrations are 500, […], 100, 50, 25, 10, 5, 2.5, 1.0 and zero parts per million of the test compound in the agar, thus having a known concentration of test compound dispersed therein. The contents of the test tubes are then transferred to respective petri plates. After drying for 24 hours, the petri plates containing nutrient agar are inoculated with bacteria and those containing malt yeast agar are inoculated with yeast and fungi.
(§4) The inoculation with bacteria is accomplished by using the following procedure. Twenty-four hour-cultures of each of the bacteria are prepared by incubating the respective bacteria in tubes containing nutrient broth for 24 hours at 30° C. in a shaker. Dilutions of each of the 24 hour-cultures are made so that nine separate suspensions (one for each of the nine test bacteria) are made, each containing 10^8 colony forming units (CFU) per mL of suspension of a particular bacteria. Aliquots of 0.3 mL of each of the bacterial suspensions are used to fill the individual wells of Steer's Replicator. For each microbial suspension, 0.3 mL was used to fill three wells (i.e., three wells of 0.3 mL each) so that for the nine different bacteria, 27 wells are filled. The Steer's Replicator is then used to inoculate both the neutral and alkaline pH nutrient agar petri plates.
(§5) The inoculated petri plates are incubated at 30° C. for 48 hours and then read to determine if the test compound which is incorporated into the agar prevented growth of the respective bacteria.

Proteus vulgaris (Pv) = assay: Minimum inhibitory concentration (MIC) in nutrient agar, Proteus vulgaris
Method: as §1, §2, §3, §4, §5

Fusarium oxysporum (Fo) = assay: Minimum inhibitory concentration (MIC) in malt yeast agar, Fusarium oxysporum
Method: as §1
(§6) Malt yeast agar is prepared at pH 5.5 by adding 3 g yeast extract and 45 g malt agar per liter of deionized water. The specific agar is dispensed in 30 mL aliquots into 25×200 mm test tubes, capped and autoclaved for 15 minutes at 115° C.
as §3
(§7) The inoculation with the yeast and fungi is accomplished as follows. Cultures of yeast and fungi are incubated for seven days on malt yeast agar at 30° C. These cultures are used to prepare suspensions by the following procedure. A suspension of each organism is prepared by adding 10 mL of sterile saline and 10 microliters of octylphenoxy polyethoxy ethanol to the agar slant of yeast or fungi. The sterile saline/octylphenoxy potyethoxy ethanol solution is then agitated with a sterile swab to suspend the microorganism grown on the slant. Each resulting suspension is diluted into sterile saline (1 part suspension: 9 parts sterile saline). Aliquots of these dilutions are placed in individual wells of Steer's Replicator and petri plates inoculated as previously described. The petri plates are incubated at 30° C. and read after 48 hours for yeast and 72 hours for fungi.

[2] = system: Salmonella choleraesuis (Se); assay: Minimum inhibitory concentration (MIC) in nutrient agar, Salmonella choleraesuis; settings: Salmonella enterica
Method: as §1, §2, §3, §4, §5

[3] = system: Saccharomyces cerevisiae (Sc); assay: Minimum inhibitory concentration (MIC) in malt yeast agar, Saccharomyces cerevisiae; settings: pH 5.5, malt yeast agar, 30° C., 48 hours for yeast, read-out: Minimum Inhibitory Concentration, SC
Method: as §1, §6, §3, §7

Bacillus subtilis (Bs) = assay: Minimum inhibitory concentration (MIC) in nutrient agar, Bacillus subtilis
Method: as §1, §2, §3, §4, §5

Trichoderma viride (Tv) = assay: Minimum inhibitory concentration (MIC) in malt yeast agar, Trichoderma viride; settings: 72 h, pH 5.5, read-out: Minimum Inhibitory Concentration, Tv
Method: as §1, §6, §3, §7

[4] = system: Pseudomonas aeruginosa (Pa); assay: Minimum inhibitory concentration (MIC) in nutrient agar, Pseudomonas aeruginosa; settings: 30° C., 48 hours, read-out: Minimum Inhibitory Concentration, Pa
Method: as §1, §2, §3, §4, §5

[5] = system: Penicillium chrysogenum (Pc); assay: Minimum inhibitory concentration (MIC) in malt yeast agar, Penicillium chrysogenum
Method: as §1, §6, §3, §7

[6] = system: Klebsiella pneumoniae (Kp); assay: Minimum inhibitory concentration (MIC) in nutrient agar, Klebsiella pneumoniae
Method: as §1, §2, §3, §4, §5

Escherichia coli (Ec) = assay: Minimum inhibitory concentration (MIC) in nutrient agar, Escherichia coli
Method: as §1, §2, §3, §4, §5

[7] = system: Aureobasidium pullulan (Ap); assay: Minimum inhibitory concentration (MIC) in malt yeast agar, Aureobasidium pullulan
Method: as §1, §6, §3, §7

[8] = system: Pseudomonas aeruginosa (PRD-10); assay: Minimum inhibitory concentration (MIC) in nutrient agar, Pseudomonas aeruginosa PRD-10
Method: as §1, §2, §3, §4, §5

Aspergillus niger (An) = assay: Minimum inhibitory concentration (MIC) in malt yeast agar, Aspergillus niger; settings: pH 5.5; malt yeast agar, 30° C., 72 hours for fungi; read-out: Minimum Inhibitory Concentration, An
Method: as §1, §6, §3, §7

Candida albicans (Ca) = assay: Minimum inhibitory concentration (MIC) in malt yeast agar, Candida albicans
Method: as §1, §6, §3, §7

[9] = system: Staphylococcus aureus (Sa); assay: Minimum inhibitory concentration (MIC) in nutrient agar, Staphylococcus aureus
Method: as §1, §2, §3, §4, §5

[10] = 48 h, pH 6.8, read-out: Minimum Inhibitory Concentration, Ea
[11] = 48 h, pH 8.2, read-out: Minimum Inhibitory Concentration, Ea
[12] = 48 h, pH 6.8, read-out: Minimum Inhibitory Concentration, Pv
[13] = 48 h, pH 8.2, read-out: Minimum Inhibitory Concentration, Pv
[14] = 48 h, pH 6.8, read-out: Minimum Inhibitory Concentration, SC
[15] = 48 h, pH 8.2, read-out: Minimum Inhibitory Concentration, SC
[16] = pH 6.8, nutrient agar, 30° C., 48 hours, read-out: Minimum Inhibitory Concentration, Bs
[17] = 48 h, pH 8.2, read-out: Minimum Inhibitory Concentration, Kp
[18] = pH 6.8, nutrient agar, 30° C., 48 hours, read-out: Minimum Inhibitory Concentration, Kp
[19] = 48 h, pH 6.8, read-out: Minimum Inhibitory Concentration, Ec
[20] = 48 h, pH 8.2, read-out: Minimum Inhibitory Concentration, Ec
[21] = 48 h, pH 6.8, read-out: Minimum Inhibitory Concentration, PRD
[22] = 48 h, pH 8.2, read-out: Minimum Inhibitory Concentration, PRD
[23] = pH 5.5, malt yeast agar, 30° C., 48 hours for yeast, read-out: Minimum Inhibitory Concentration, Ca
[24] = 48 h, pH 8.2, read-out: Minimum Inhibitory Concentration, Sa
[25] = pH 6.8, nutrient agar, 30° C., 48 hours, read-out: Minimum Inhibitory Concentration, Sa
[26] = pH 5.5, malt yeast agar, 30° C., 72 hours for fungi, read-out: Minimum Inhibitory Concentration, Fo
[27] = pH 8.2, nutrient agar, 30° C., 48 hours, read-out: Minimum Inhibitory Concentration, Bs
[28] = 72 h, pH 5.5, read-out: Minimum Inhibitory Concentration, PC
[29] = pH 5.5, malt yeast agar, 30° C., read-out: Minimum Inhibitory Concentration, Ap

Structure (SMILES)	MIC [1, 10] [µg/mL]	MIC [1, 11] [µg/mL]	MIC (Proteus vulgaris (Pv); [12]) [µg/mL]	MIC (Proteus vulgaris (Pv); [13]) [µg/mL]	MIC [2, 14] [µg/mL]	MIC [2, 15] [µg/mL]	MIC [3] [µg/mL]	MIC (Bacillus subtilis (Bs); [16]) [µg/mL]	MIC (Trichoderma viride (Tv)) [µg/mL]	MIC ([4]; pH 6.8, nutrient agar) [µg/mL]	MIC ([4]; pH 8.2, nutrient agar) [µg/mL]	MIC [6, 17] [µg/mL]	MIC [6, 18] [µg/mL]	MIC (Escherichia coli (Ec); [19]) [µg/mL]	MIC (Escherichia coli (Ec); [20]) [µg/mL]	MIC [8, 21] [µg/mL]	MIC [8, 22] [µg/mL]	MIC (Aspergillus niger (An)) [µg/mL]	MIC (Candida albicans (Ca); [23]) [µg/mL]	MIC [9, 24] [µg/mL]	also measured
CS(=O)(=O)c1ccc(-c2nsnc2SC#N)cc1 [Example XI, 4-(4-Methylsulfonylphenyl)-3-thiocyanato-l,2,5-thiadiazole]	500 (≈ 1680 µM)	500 (≈ 1680 µM)	500 (≈ 1680 µM)	500 (≈ 1680 µM)	500 (≈ 1680 µM)	500 (≈ 1680 µM)	250 (≈ 841 µM)	25 (≈ 84.1 µM)	250 (≈ 841 µM)	500 (≈ 1680 µM)	500 (≈ 1680 µM)	500 (≈ 1680 µM)	250 (≈ 841 µM)	500 (≈ 1680 µM)	500 (≈ 1680 µM)	500 (≈ 1680 µM)	500 (≈ 1680 µM)	500 (≈ 1680 µM)	500 (≈ 1680 µM)	500 (≈ 1680 µM)	MIC (Fusarium oxysporum (Fo); 72 h, pH 5.5, read-out: Minimum Inhibitory Concentration, Fo): 100 µg/mL (≈ 336 µM); MIC (Bacillus subtilis (Bs); 48 h, pH 8.2, read-out: Minimum Inhibitory Concentration, Bs): 500 µg/mL (≈ 1680 µM); MIC ([5]; pH 5.5, malt yeast agar, 30° C., 72 hours for fungi, read-out: Minimum Inhibitory Concentration, PC): 500 µg/mL (≈ 1680 µM); MIC ([7]; pH 5.5, read-out: Minimum Inhibitory Concentration, Ap): 50 µg/mL (≈ 168 µM); MIC [9, 25]: 100 µg/mL (≈ 336 µM)
N#CSc1nsnc1-c1ccc([N+](=O)[O-])cc1 [Example XIII, 4-(4-nitrophenyl)-3-thiocyanato-1,2,5-thiadiazole]	500 (≈ 1890 µM)	–	500 (≈ 1890 µM)	–	500 (≈ 1890 µM)	–	< 10	25 (≈ 94.6 µM)	< 10	500 (≈ 1890 µM)	> 100	–	100 (≈ 378 µM)	500 (≈ 1890 µM)	–	500 (≈ 1890 µM)	–	< 10	< 10	–	MIC ([1]; pH 8.2, nutrient agar, 30° C., 48 hours, read-out: Minimum Inhibitory Concentration, Ea): > 100 µg/mL; MIC (Proteus vulgaris (Pv); pH 8.2, nutrient agar, 30° C., 48 hours, read-out: Minimum Inhibitory Concentration, Pv): > 100 µg/mL; MIC (Fusarium oxysporum (Fo); [26]): < 10 µg/mL; MIC ([2]; pH 8.2, nutrient agar, 30° C., 48 hours, read-out: Minimum Inhibitory Concentration, SC): > 100 µg/mL; MIC (Bacillus subtilis (Bs); [27]): > 100 µg/mL; MIC [5, 28]: < 10 µg/mL; MIC ([6]; pH 8.2, nutrient agar, 30° C., 48 hours, read-out: Minimum Inhibitory Concentration, Kp): > 100 µg/mL; MIC (Escherichia coli (Ec); pH 8.2, nutrient agar, 30° C., 48 hours, read-out: Minimum Inhibitory Concentration, Ec): > 100 µg/mL; MIC [7, 29]: < 10 µg/mL; MIC ([8]; pH 8.2, nutrient agar, 30° C., 48 hours, read-out: Minimum Inhibitory Concentration, PRD): > 100 µg/mL; MIC ([9]; 48 h, pH 6.8, read-out: Minimum Inhibitory Concentration, Sa): 50 µg/mL (≈ 189 µM); MIC ([9]; pH 8.2, nutrient agar, 30° C., 48 hours, read-out: Minimum Inhibitory Concentration, Sa): > 100 µg/mL
N#CSc1nsnc1-c1cccs1 [Example XIV, 4-(2-Thiophene)-3-thiocyanato-1,2,5-thiadiazole]	–	500 (≈ 2220 µM)	–	500 (≈ 2220 µM)	–	500 (≈ 2220 µM)	< 10	25 (≈ 111 µM)	< 10	500 (≈ 2220 µM)	500 (≈ 2220 µM)	500 (≈ 2220 µM)	25 (≈ 111 µM)	50 (≈ 222 µM)	500 (≈ 2220 µM)	500 (≈ 2220 µM)	500 (≈ 2220 µM)	< 10	–	500 (≈ 2220 µM)	MIC ([1]; pH 6.8, nutrient agar, 30° C., 48 hours, read-out: Minimum Inhibitory Concentration, Ea): 100 µg/mL (≈ 444 µM); MIC (Proteus vulgaris (Pv); pH 6.8, nutrient agar, 30° C., 48 hours, read-out: Minimum Inhibitory Concentration, Pv): 50 µg/mL (≈ 222 µM); MIC (Fusarium oxysporum (Fo); [26]): < 10 µg/mL; MIC ([2]; pH 6.8, nutrient agar, 30° C., 48 hours, read-out: Minimum Inhibitory Concentration, SC): 50 µg/mL (≈ 222 µM); MIC (Bacillus subtilis (Bs); [27]): 100 µg/mL (≈ 444 µM); MIC [5, 28]: < 10 µg/mL; MIC [7, 29]: < 10 µg/mL; MIC (Candida albicans (Ca); 48 h, pH 5.5, read-out: Minimum Inhibitory Concentration, Ca): 25 µg/mL (≈ 111 µM); MIC [9, 25]: 25 µg/mL (≈ 111 µM)
